Laboratory results as given in ChEMBL document CHEMBL5291721, “A preclinical secondary pharmacology resource illuminates target-adverse drug reaction associations of marketed drugs” (Nat Commun, 2023).

Tests used:
[1] = target: Mu-type opioid receptor (Homo sapiens, UniProt P35372)
[2] = target: T1, Glucocorticoid receptor (Homo sapiens, UniProt P04150)
T1 sequence (P04150 whole entry): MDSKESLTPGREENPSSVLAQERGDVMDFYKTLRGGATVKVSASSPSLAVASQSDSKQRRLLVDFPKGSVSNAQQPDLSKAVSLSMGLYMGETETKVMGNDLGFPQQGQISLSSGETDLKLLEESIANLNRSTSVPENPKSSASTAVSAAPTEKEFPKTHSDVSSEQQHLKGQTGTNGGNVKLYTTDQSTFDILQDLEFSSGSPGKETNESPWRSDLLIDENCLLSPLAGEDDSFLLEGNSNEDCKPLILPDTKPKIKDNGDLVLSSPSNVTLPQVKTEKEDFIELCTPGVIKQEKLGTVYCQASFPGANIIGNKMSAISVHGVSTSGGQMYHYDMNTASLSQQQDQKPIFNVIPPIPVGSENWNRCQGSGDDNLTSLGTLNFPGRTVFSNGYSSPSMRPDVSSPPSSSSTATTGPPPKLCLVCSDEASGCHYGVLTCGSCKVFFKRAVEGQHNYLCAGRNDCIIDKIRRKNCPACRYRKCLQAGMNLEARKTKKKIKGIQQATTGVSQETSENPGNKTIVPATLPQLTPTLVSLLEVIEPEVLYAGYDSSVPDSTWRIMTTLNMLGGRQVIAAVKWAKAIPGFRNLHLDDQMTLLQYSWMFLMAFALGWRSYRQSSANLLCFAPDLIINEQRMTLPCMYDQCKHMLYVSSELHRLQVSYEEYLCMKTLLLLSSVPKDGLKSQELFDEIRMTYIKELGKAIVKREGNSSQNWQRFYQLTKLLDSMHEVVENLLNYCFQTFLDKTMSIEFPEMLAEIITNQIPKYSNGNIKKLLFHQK

[3] = target: T2, Progesterone receptor (Homo sapiens, UniProt P06401); type: functional
T2 sequence (P06401 whole entry): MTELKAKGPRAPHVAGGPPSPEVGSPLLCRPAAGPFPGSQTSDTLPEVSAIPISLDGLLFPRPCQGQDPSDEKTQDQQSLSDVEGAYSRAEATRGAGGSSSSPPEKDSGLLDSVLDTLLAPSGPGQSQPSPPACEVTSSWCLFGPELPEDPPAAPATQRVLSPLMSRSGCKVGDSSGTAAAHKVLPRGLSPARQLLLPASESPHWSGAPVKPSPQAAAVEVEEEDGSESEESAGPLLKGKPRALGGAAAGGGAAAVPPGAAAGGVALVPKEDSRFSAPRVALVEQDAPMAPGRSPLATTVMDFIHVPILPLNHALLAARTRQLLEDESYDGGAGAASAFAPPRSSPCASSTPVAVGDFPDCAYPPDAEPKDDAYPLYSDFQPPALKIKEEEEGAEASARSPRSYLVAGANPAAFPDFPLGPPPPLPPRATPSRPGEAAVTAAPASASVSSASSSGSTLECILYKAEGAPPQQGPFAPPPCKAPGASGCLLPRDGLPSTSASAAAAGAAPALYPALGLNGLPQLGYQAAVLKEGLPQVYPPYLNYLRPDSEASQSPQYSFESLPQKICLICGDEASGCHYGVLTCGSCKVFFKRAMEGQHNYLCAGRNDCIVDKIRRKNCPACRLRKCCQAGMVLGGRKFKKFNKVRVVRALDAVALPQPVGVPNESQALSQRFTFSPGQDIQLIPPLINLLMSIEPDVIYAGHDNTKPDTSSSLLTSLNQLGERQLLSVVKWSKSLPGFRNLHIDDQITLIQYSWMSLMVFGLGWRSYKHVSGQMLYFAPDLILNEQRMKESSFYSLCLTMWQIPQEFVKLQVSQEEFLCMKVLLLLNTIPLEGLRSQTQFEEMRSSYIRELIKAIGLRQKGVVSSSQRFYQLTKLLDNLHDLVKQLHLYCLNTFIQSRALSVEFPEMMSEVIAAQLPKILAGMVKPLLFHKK

[4] = target: T3, Alpha-1A adrenergic receptor (Homo sapiens, UniProt P35348); type: functional, cell-based
T3 sequence (P35348 whole entry): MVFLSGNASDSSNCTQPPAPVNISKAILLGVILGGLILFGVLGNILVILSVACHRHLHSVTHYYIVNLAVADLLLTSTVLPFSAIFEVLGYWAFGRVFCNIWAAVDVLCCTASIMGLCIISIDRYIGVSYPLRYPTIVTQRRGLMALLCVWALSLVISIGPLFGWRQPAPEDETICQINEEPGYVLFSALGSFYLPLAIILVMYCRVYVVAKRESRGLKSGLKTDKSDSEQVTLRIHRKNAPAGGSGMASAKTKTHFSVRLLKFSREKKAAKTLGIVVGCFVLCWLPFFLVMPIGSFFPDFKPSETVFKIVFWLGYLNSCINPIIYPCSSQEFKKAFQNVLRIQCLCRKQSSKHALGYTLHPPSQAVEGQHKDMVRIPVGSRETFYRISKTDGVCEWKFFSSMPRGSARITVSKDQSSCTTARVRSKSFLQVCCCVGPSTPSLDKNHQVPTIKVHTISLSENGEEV

[5] = target: T3, Alpha-1A adrenergic receptor; type: functional, cell-based; remark: listed apart in the source
[6] = target: T2, Progesterone receptor; type: functional; remark: listed apart in the source
[7] = target: T4, 5-hydroxytryptamine receptor 1A (Homo sapiens, UniProt P08908)
T4 sequence (P08908 whole entry): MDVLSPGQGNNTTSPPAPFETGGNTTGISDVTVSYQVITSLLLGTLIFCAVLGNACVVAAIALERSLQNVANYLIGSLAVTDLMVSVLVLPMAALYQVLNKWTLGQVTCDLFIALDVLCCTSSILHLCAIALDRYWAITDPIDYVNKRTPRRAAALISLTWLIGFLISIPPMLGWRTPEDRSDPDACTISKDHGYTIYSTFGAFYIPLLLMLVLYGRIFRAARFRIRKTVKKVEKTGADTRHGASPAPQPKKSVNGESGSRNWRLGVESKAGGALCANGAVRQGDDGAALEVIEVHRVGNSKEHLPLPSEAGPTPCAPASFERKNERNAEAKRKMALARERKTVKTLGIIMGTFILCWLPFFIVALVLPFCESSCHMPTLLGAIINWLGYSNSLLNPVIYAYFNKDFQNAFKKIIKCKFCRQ
Note: assay procedure not described here.

Chain of Mu-type opioid receptor (P35372 whole entry): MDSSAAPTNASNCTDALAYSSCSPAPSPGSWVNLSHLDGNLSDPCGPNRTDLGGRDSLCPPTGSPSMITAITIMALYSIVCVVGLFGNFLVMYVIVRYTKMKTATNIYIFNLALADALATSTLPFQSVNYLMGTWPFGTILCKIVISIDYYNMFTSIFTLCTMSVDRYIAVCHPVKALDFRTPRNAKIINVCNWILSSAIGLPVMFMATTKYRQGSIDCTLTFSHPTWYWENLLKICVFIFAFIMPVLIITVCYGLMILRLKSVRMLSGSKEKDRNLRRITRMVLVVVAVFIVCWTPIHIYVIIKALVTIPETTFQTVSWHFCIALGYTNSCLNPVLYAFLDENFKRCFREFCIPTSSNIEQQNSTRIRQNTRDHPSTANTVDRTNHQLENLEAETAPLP

For `NS(=O)(=O)c1cc2c(cc1Cl)NCNS2(=O)=O` [HYDROCHLOROTHIAZIDE], the AC50 [1] was > 10 µM and the AC50 [2] was > 30 µM.
In the case of `CC(C)Cc1ccc(CC(=O)O)cc1` [IBUFENAC], the AC50 [1] is reported as > 30 µM, the AC50 [3] is reported as > 30 µM and the AC50 [4] is reported as > 30 µM. The AC50 [5] was > 30 µM and the AC50 [6] was > 30 µM.
In the case of `CC(C)NNC(=O)c1ccncc1` [IPRONIAZID], the AC50 [1] is reported as > 30 µM, the AC50 [3] is reported as > 30 µM and the AC50 [4] is reported as > 30 µM. For the same molecule, the AC50 [5] was > 30 µM and the AC50 [6] was > 30 µM.
`CN1C(=O)CC(C)(c2ccccc2)C1=O` (configuration not stated) [METHSUXIMIDE] was tested, and the AC50 [1] was > 30 µM, the AC50 [2] was > 10 µM and the AC50 [3] was > 10 µM. For the same molecule, the AC50 [6] was > 10 µM.
For `C[C@H]1C[C@@H]2[C@H]([C@@H](O)C[C@@]3(C)[C@H]2CC[C@]3(O)C(=O)CO)[C@@]2(C)C=CC(=O)C=C12` [METHYLPREDNISOLONE], the AC50 [1] was > 30 µM and the AC50 [3] was 1.3 µM.
With `CCN(CC)CCNC(=O)c1cc(Cl)c(N)cc1OC` [METOCLOPRAMIDE] the AC50 [1] was > 30 µM, the AC50 [4] was > 30 µM and the AC50 [5] was > 30 µM.
`CC(C)(C(=O)c1cccnc1)c1cccnc1` [METYRAPONE] was tested, and the AC50 [1] was > 30 µM, the AC50 [2] was > 10 µM and the AC50 [3] was > 10 µM. For the same molecule, the AC50 [6] was > 10 µM.
In the case of `CCc1nn(CCCN2CCN(c3cccc(Cl)c3)CC2)c(=O)n1CCOc1ccccc1` [NEFAZODONE], the AC50 [1] is reported as 3.8 µM and the AC50 [5] is reported as 2.2 µM.
In the case of `NC1=NC(=O)C(c2ccccc2)O1` (configuration not stated) [PEMOLINE], the AC50 [1] is reported as > 30 µM and the AC50 [2] is reported as > 30 µM.
`CCc1ccc(CCOc2ccc(CC3SC(=O)NC3=O)cc2)nc1` (configuration not stated) [PIOGLITAZONE] was tested, and the AC50 [7] was > 30 µM, the AC50 [1] was > 10 µM and the AC50 [2] was > 30 µM.
With `CC(C(=O)O)c1ccc(N2CC=CC2)c(Cl)c1` (configuration not stated) [PIRPROFEN] the AC50 [7] was > 30 µM, the AC50 [1] was > 30 µM and the AC50 [2] was > 30 µM. The AC50 [4] was > 30 µM and the AC50 [5] was > 30 µM.
In the case of `CC[C@H](C)C(=O)O[C@H]1C[C@H](O)C=C2C=C[C@H](C)[C@H](CC[C@@H](O)C[C@@H](O)CC(=O)O)[C@H]21` [PRAVASTATIN], the AC50 [1] is reported as > 30 µM, the AC50 [3] is reported as > 30 µM and the AC50 [4] is reported as > 30 µM. For the same molecule, the AC50 [5] was > 30 µM and the AC50 [6] was > 30 µM.
For `CC(C(=O)O)c1ccc(C(=O)c2cccs2)cc1` (configuration not stated) [SUPROFEN], the AC50 [1] was > 30 µM, the AC50 [2] was > 10 µM and the AC50 [3] was > 10 µM. For the same molecule, the AC50 [6] was > 10 µM.
`Cc1ccc(C(=O)c2cc(O)c(O)c([N+](=O)[O-])c2)cc1` [TOLCAPONE] was tested, and the AC50 [1] was > 30 µM, the AC50 [2] was > 30 µM and the AC50 [3] was > 30 µM. For the same molecule, the AC50 [6] was 1.09 µM.
`NC[C@H]1CC[C@H](C(=O)O)CC1` [TRANEXAMIC ACID] was tested, and the AC50 [1] was > 30 µM, the AC50 [3] was > 10 µM and the AC50 [6] was > 10 µM.
For `OCc1cc([C@@H](O)CNCCCCCCOCCOCc2c(Cl)cccc2Cl)ccc1O` [VILANTEROL], the AC50 [1] was > 30 µM, the AC50 [3] was > 30 µM and the AC50 [5] was 1.1 µM. The AC50 [6] was > 30 µM.
`O=C(CCCCCCC(=O)Nc1ccccc1)NO` [VORINOSTAT] was tested, and the AC50 [1] was > 30 µM, the AC50 [3] was > 30 µM and the AC50 [4] was > 30 µM. The AC50 [5] was > 30 µM and the AC50 [6] was > 30 µM.
